Test results reported in patent US10232058B2, “Prostate-specific membrane antigen-targeted photosensitizers for photodynamic therapy” (THE JOHNS HOPKINS UNIVERSITY, priority 2013, dated 2019).

Target: PSMA (Homo sapiens, UniProt Q04609)
Assay: fluorescence-based PSMA binding assay
Details: read-out: PSMA binding affinity Ki

Chain of PSMA (Q04609 whole entry): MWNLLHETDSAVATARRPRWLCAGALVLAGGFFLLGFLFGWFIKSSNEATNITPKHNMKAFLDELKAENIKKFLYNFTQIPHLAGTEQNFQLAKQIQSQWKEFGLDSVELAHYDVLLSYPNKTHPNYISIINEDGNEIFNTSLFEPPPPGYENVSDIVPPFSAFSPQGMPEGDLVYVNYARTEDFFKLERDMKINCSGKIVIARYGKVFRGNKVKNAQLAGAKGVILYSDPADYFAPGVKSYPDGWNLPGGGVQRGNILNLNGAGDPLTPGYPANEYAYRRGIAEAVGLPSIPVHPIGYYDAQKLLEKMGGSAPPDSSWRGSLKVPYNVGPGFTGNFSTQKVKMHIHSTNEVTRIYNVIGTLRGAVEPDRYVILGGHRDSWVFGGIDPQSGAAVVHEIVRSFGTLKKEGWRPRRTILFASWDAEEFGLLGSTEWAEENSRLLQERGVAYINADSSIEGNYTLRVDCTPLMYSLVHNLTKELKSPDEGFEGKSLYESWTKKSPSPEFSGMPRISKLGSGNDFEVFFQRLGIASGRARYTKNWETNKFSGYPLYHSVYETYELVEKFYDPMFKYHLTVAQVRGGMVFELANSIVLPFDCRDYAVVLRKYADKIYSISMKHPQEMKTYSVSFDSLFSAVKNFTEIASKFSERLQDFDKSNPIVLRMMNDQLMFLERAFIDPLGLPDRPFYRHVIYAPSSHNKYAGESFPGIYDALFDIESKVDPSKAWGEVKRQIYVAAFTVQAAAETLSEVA

- Ki: 1.2 nM
Compound: C=Cc1c(C)c2cc3nc(c4c5[nH]c(cc6nc(cc1[nH]2)C(C)=C6CC)c(C)c5C(=O)C4)[C@H](CCC(=O)NCCCCC(NC(=O)CCCCCCC(=O)NCCCC[C@H](NC(=O)N[C@@H](CCC(=O)O)C(=O)O)C(=O)O)C(=O)O)[C@H]3C (stereo partly shown) [YC-6]
